System: Hep-G2 cells
Assay: Inhibition of cell proliferation of Hep-G2 cells (intracellular ATP, CellTiterGlo)
Format: cell-based
Conditions: Homo sapiens, HepG2, 72 hours incubation, ATP content, read-out: IC 50 (μM)/HEP G2
Description: The antiproliferative activity of product 3 was determined by measuring the inhibition of cell proliferation of Hep-G2 cells. The cells are subcultured in a cell culture medium at a concentration of 1000 cells per well, and incubated for 4 hours at 37° C. and 5% CO2.
Medium used for the Hep-G2 cell culture: Dubelcco's modified Eagle's medium/Ham mixture F12 (Gibco); NEAA (10%; nonessential amino acids, Gibco); sodium pyruvate (1%, Gibco); L-glutamine (1%, Gibco); fetal calf serum (5%; PAA).
After 4 hours, the test products dissolved in a DMSO/cell culture medium mixture are added at various concentrations and the resulting mixtures are incubated for 72 hours at 37° C. and 5% CO2. The intracellular ATP content was measured using the CellTiterGlo test reagent (Promega).

IC50 [µM] | SMILES
7 | CO[C@@H](C(=O)N[C@H]1CCCCNC1=O)[C@H](O)[C@@H](O)[C@H](O)/C=C/C(C)C [Bengamide E]
0.02 | CCC(C)/C=C/[C@@H](O)[C@H](O)[C@@H](O)[C@@H](OC)C(=O)N[C@H]1CCCCN(Cc2ccccc2)C1=O (stereo partly drawn) [Example 3, N-[(S)-1-(4-benzyl)-2-oxoperhydroazepin-3-yl]-(E)-(2R,3R,4S,5R)-3,4,5-trihydroxy-2-methoxy-8-methyldec-6-enamide]
